{
  "source": "patent US20210046106A1",
  "about": "“METHODS OF TREATING CANCER WITH ANDROGEN DEPRIVATION THERAPY IN COMBINATION WITH AN INHIBITOR OF THE SP1 TRANSCRIPTION FACTOR” (The Board of Trustees of the Leland Stanford Junior …, priority 2019, published 2021)",
  "system": "AR and PSA",
  "assay": "NAC pretreatment and down-regulation of AR and PSA in LAPC-4 cells",
  "format": "cell-based",
  "settings": "10 mmol/L NAC 24 h pretreatment",
  "data": [
    {"molecule": "CC(=O)N[C@@H](CS)C(=O)O", "note": "[NAC, N-acetylcysteine]", "values": [
      {"measurement": "effect of NAC on methylseleninic acid (MSeA)-induced down-regulation of the AR and PSA", "setting": "then 10 μmol/L MSeA 24 h", "value": "does not inhibit"},
      {"measurement": "effect of NAC on selenite-induced down-regulation of the AR and PSA", "setting": "then selenite 24 h", "value": "inhibits"}
    ]}
  ]
}
